According to ChEMBL document CHEMBL4619820, “Development of Novel AKR1C3 Inhibitors as New Potential Treatment for Castration-Resistant Prostate Cancer” (J Med Chem, 2020):
Numbering of substitutions follows the chain as printed. The source made the active and inactive calls. The rule behind the calls is not given here.

How the values were obtained:
[1] = target: T1, Carbonyl reductase [NADPH] 1 (Homo sapiens, UniProt P16152); test: Inhibition of CBR1 (unknown origin)
T1 sequence (P16152 whole entry): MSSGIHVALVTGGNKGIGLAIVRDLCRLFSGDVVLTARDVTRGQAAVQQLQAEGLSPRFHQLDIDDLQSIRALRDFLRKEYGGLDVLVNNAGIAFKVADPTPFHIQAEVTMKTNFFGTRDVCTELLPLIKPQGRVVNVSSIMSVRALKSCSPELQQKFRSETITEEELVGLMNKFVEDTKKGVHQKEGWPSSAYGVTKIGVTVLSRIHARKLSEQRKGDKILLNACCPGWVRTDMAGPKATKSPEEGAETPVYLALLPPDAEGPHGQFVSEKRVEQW

[2] = target: T2, Aldo-keto reductase family 1 member C3 (Homo sapiens, UniProt P42330); test: Inhibition of recombinant AKR1C3 (unknown origin) assessed as reduction in S-tetralol-induced dehydrogenase activity by measuring NADPH level
T2 sequence (P42330 whole entry): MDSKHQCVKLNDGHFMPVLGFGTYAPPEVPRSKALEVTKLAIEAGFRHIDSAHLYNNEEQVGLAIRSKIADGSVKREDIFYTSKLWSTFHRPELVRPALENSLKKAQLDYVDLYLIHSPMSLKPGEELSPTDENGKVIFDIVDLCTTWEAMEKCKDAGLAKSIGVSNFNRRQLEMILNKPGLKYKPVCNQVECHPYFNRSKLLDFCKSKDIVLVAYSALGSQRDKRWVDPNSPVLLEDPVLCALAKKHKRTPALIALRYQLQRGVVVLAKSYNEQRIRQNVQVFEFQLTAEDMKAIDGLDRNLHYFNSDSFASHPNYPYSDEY

[3] = target: T3, Aldo-keto reductase family 1 member C1 (Homo sapiens, UniProt Q04828); test: Inhibition of recombinant AKR1C1 (unknown origin) assessed as reduction in S-tetralol-induced dehydrogenase activity by measuring NADPH level
T3 sequence (Q04828 whole entry): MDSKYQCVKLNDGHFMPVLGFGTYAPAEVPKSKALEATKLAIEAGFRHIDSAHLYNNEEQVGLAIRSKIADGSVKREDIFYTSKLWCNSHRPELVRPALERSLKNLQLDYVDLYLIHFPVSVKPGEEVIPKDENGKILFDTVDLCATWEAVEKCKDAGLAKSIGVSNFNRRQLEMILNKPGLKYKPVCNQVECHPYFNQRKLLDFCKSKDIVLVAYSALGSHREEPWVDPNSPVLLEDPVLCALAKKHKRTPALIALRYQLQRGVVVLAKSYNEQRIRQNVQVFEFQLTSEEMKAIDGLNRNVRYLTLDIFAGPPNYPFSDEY

[4] = target: T4, Aldo-keto reductase family 1 member C2 (Homo sapiens, UniProt P52895); test: Inhibition of recombinant AKR1C2 (unknown origin) assessed as reduction in S-tetralol-induced dehydrogenase activity by measuring NADPH level
T4 sequence (P52895 whole entry): T3 sequence (Q04828 whole entry) with T38V, R47H, L54V, C87S, V151M, R170H, Q172L

[5] = target: T5, Aldo-keto reductase family 1 member C4 (Homo sapiens, UniProt P17516); test: Inhibition of recombinant AKR1C4 (unknown origin) assessed as reduction in S-tetralol-induced dehydrogenase activity by measuring NADPH level
T5 sequence (P17516 whole entry): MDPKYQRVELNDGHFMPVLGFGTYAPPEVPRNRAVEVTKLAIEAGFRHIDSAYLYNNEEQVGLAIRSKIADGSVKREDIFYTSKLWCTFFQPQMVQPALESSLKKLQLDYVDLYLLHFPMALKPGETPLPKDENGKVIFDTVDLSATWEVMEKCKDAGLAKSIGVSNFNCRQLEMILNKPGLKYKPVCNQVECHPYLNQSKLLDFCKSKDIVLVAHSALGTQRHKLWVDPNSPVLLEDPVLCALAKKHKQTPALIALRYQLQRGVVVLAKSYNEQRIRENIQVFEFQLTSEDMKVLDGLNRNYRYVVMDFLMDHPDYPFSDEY

[6] = species on record: Homo sapiens; test: Ratio of IC50 for inhibition of recombinant AKR1C1 (unknown origin) inhibition of recombinant AKR1C3 (unknown origin)
[7] = species on record: Homo sapiens; test: Ratio of IC50 for inhibition of recombinant AKR1C2 (unknown origin) inhibition of recombinant AKR1C3 (unknown origin)
[8] = species on record: Homo sapiens; test: Ratio of IC50 for inhibition of recombinant AKR1C4 (unknown origin) inhibition of recombinant AKR1C3 (unknown origin)
[9] = species on record: Homo sapiens; test: Ratio of IC50 for inhibition of CBR1 (unknown origin) inhibition of recombinant AKR1C3 (unknown origin)
[10] = target: T6, Androgen receptor (Homo sapiens) (UniProt P10275); test: Agonistic activity at AR in human 22Rv1 cells assessed as effect on cell number at 1 nM by CCK8 assay; type: cell-based; conditions: CWR22R
T6 sequence (whole entry): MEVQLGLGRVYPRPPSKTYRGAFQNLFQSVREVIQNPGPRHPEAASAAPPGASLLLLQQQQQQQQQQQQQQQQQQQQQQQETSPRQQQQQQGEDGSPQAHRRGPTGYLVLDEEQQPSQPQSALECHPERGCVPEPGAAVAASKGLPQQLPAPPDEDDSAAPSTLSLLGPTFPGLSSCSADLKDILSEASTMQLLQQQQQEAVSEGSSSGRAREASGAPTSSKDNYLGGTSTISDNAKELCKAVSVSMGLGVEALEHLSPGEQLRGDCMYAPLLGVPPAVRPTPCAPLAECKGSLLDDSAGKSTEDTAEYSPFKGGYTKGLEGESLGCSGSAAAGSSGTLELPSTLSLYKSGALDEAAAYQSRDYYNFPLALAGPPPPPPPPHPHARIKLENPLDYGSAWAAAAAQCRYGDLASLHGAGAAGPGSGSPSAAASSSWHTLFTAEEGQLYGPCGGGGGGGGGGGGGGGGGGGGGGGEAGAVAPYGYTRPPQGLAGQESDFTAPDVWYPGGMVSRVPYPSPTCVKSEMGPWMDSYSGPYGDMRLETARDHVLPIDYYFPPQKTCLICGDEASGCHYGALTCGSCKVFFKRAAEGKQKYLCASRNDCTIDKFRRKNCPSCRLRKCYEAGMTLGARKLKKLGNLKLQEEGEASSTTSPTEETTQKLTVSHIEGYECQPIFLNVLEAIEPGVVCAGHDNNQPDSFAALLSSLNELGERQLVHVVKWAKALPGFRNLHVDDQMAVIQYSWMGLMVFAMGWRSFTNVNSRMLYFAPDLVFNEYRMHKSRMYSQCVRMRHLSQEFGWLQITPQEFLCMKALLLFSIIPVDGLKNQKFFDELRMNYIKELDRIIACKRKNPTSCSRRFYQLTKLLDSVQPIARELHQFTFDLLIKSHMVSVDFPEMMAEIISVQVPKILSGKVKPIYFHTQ

## CCc1cccc(NC(=O)c2cc3cccc(O)c3oc2=N)c1
[1]
  IC50: 250 nM
[2]
  IC50: 34 nM
[3]
  IC50: > 10000 nM
[4]
  IC50: > 10000 nM
[5]
  IC50: > 10000 nM
[6]
  Ratio IC50: > 300
[7]
  Ratio IC50: > 300
[8]
  Ratio IC50: > 300
[9]
  Ratio IC50: 7
[10]
  Activity: inactive

## Cc1ccc(NC(=O)c2cc3cccc(O)c3oc2=N)cc1
[1]
  IC50: 270 nM
[2]
  IC50: 27 nM
[3]
  IC50: > 10000 nM
[4]
  IC50: > 10000 nM
[5]
  IC50: > 10000 nM
[6]
  Ratio IC50: > 370
[7]
  Ratio IC50: > 370
[8]
  Ratio IC50: > 370
[9]
  Ratio IC50: 10
[10]
  Activity: inactive

## N=c1oc2c(O)cccc2cc1C(=O)Nc1ccc(F)cc1
[1]
  IC50: 440 nM
[2]
  IC50: 25 nM
[3]
  IC50: 6000 nM
[4]
  IC50: > 10000 nM
[5]
  IC50: > 10000 nM
[6]
  Ratio IC50: 240
[7]
  Ratio IC50: > 400
[8]
  Ratio IC50: > 400
[9]
  Ratio IC50: 18
[10]
  Activity: inactive
